# Data as given in US8975264B2, “Compound acting as a cannabinoid receptor-1 inhibitor” (Amorepacific Corporation, priority 2010, dated 2015).
# Molecular target: human CB1 (cannabinoid receptor 1) (Homo sapiens, UniProt P21554)
# Assay: CB1 receptor inhibition effect: calcium ion influx assay (Fluo-4 NW) in Chem-1 cells after 1 μM R-(+)-WIN55212-2
# Assay type: cell-based
# Conditions: calcium ion influx in Chem-1 cells expressing human CB1, 1 μM R-(+)-WIN55212-2
# Description: When cells in which the cannabinoid receptor 1 (CB1) is stably expressed are treated with a CB1 receptor agonist, the CB1 receptor is activated and influx of calcium ions into the cells increases. CB1 receptor inhibition effect of a test compound can be evaluated by measuring the degree of calcium influx inhibition after treating with the test compound.
# First, Chem-1 cells (Chemicon International, #HTS019C) in which human CB1 cDNA is expressed stably were seeded onto a 96-well cell culture plate at a density of ˜50,000 cells/well and incubated overnight in a 5% CO2 incubator at 37° C. The next day, the culture medium was discarded and the cells were cautiously washed once using an assay buffer (HBSS containing 20 mM HEPES and 2.5 mM probenecid) with 200 μL/well. Calcium ion influx was measured using an assay kit (Fluo-4 NW calcium assay kit: Molecular Probes™, #F36206) according to the manufacturer's instructions. The compounds of Examples of desired concentration to be measured were comprised to 0.5% DMSO. For control, only 0.5% DMSO was used without the compounds of Examples. Reaction time was 10 minutes. After treating the Chem-1 cells stably expressing the CB1 receptor with 1 μM R-(+)-WIN55212-2 (Sigma, #W102), a CB1 receptor agonist, calcium ion (Ca^2+) flux induced thereby was measured for 80 seconds using Flex Station 3 (Molecular Device, USA).
# The difference in calcium ion concentration of the cells treated with the compounds of Examples or those treated with 1 μM R-(+)-WIN55212-2 was obtained from the difference of the maximum and minimum values during the 80 seconds. Then, % inhibition of the compounds for the CB1 receptor was calculated using the following equation. % inhibition={1−(ΔRFUcompound−ΔRFUBlank)/(ΔRFUControl−ΔRFUBlank)}×100 [Equation]
# ΔRFU: maximum relative fluorescence units−minimum relative fluorescence units
# ΔRFUCompound: difference in maximum and minimum RFUs in the well where the compounds of Examples dissolved in DMSO to a final concentration of 0.5% and 1 μM R-(+)-WIN55212-2 dissolved in DMSO to a final concentration of 0.5% were added
# ΔRFUBlank: difference in maximum and minimum RFUs in the well to which only 1% DMSO was added
# ΔRFUControl: difference in maximum and minimum RFUs in the well where 0.5% DMSO and 1 μM R-(+)-WIN55212-2 dissolved in DMSO to a final concentration of 0.5% were added
# Chain of human CB1 (cannabinoid receptor 1) (P21554 whole entry): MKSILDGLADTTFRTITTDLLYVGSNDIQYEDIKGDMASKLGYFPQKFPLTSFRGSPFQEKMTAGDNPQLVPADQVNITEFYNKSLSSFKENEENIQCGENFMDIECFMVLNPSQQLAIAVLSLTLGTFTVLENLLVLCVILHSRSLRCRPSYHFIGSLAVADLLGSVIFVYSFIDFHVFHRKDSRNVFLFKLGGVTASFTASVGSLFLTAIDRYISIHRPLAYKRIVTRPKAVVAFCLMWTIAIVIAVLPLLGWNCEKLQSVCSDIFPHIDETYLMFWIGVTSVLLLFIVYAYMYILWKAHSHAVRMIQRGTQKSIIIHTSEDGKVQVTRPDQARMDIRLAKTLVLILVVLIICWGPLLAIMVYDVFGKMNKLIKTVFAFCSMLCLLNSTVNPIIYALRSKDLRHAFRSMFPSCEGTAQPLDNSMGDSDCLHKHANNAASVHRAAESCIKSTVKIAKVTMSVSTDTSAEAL
row,IC50,SMILES
1,110 nM,CSc1ccc(-c2c(C)nn3c(-c4cccc(C)c4)cc(N4CCC[C@H]4CO)nc23)cc1 [Example 162]
2,260 nM,Cc1cccc(-c2cc(N3CCC[C@H]3CO)nc3c(-c4ccc(C(F)(F)F)cc4)c(C)nn23)c1 [Example 163]
3,330 nM,C=Cc1ccc(-c2c(C)nn3c(-c4cccc(C)c4)cc(N4CCC[C@H]4CO)nc23)cc1 [Example 165]
4,250 nM,Cc1cccc(-c2cc(N3CCC[C@H]3CO)nc3c(-c4ccc(F)cc4)c(C)nn23)c1 [Example 167]
5,450 nM,Cc1cccc(-c2cc(N3CCC[C@H]3CO)nc3c(-c4ccc(OC(F)(F)F)cc4)c(C)nn23)c1 [Example 168]
6,33 nM,"COc1ccc(-c2c(C)nn3c(-c4cccc(Cl)c4)cc(N4CCC[C@H]4CO)nc23)cc1 [Example 169, (S)-(1-(3-(4-methoxyphenyl)-7-(3-chlorophenyl)-2-methylpyrazolo[1,5-a]pyrimidin-5-yl)pyrrolidin-2-yl)methanol]"
7,160 nM,Cc1ccc(-c2c(C)nn3c(-c4cccc(Cl)c4)cc(N4CCC[C@H]4CO)nc23)cc1 [Example 170]
8,240 nM,CCOc1ccc(-c2c(C)nn3c(-c4cccc(Cl)c4)cc(N4CCC[C@H]4CO)nc23)cc1 [Example 171]
9,190 nM,Cc1nn2c(-c3cccc(Cl)c3)cc(N3CCC[C@H]3CO)nc2c1-c1ccc2c(c1)OCO2 [Example 172]
10,250 nM,Cc1nn2c(-c3cccc(Cl)c3)cc(N3CCC[C@H]3CO)nc2c1-c1ccc(C(F)(F)F)cc1 [Example 173]
11,220 nM,CCc1ccc(-c2c(C)nn3c(-c4cccc(Cl)c4)cc(N4CCC[C@H]4CO)nc23)cc1 [Example 174]
12,270 nM,Cc1ccc(-c2c(C)nn3c(-c4cccc(Cl)c4)cc(N4CCC[C@H]4CO)nc23)cc1F [Example 176]
13,120 nM,COc1cccc(-c2cc(N3CCC[C@H]3CO)nc3c(-c4ccc(C(F)F)cc4)c(C)nn23)c1 [Example 178]
14,410 nM,Cc1ccc(-c2cc(N3CCC[C@H]3CO)nc3c(-c4ccc(C(F)(F)F)cc4)c(C)nn23)cc1 [Example 180]
15,310 nM,CCc1ccc(-c2c(C)nn3c(-c4ccc(C)cc4)cc(N4CCC[C@H]4CO)nc23)cc1 [Example 182]
16,130 nM,COc1cccc(-c2cc(N3CCC[C@H]3CO)nc3c(-c4ccc(C)c(F)c4)c(C)nn23)c1 [Example 183]
17,150 nM,Cc1ccc(-c2c(C)nn3c(-c4ccc(F)c(F)c4)cc(N4CCC[C@H]4CO)nc23)cc1F [Example 184]
18,210 nM,Cc1ccc(-c2c(C)nn3c(-c4ccc(F)c(Cl)c4)cc(N4CCC[C@H]4CO)nc23)cc1F [Example 185]

# The next lines start with the compound.
row,SMILES,IC50
1,C=Cc1ccc(-c2c(C)nn3c(-c4ccc(F)cc4)cc(N4CCC[C@H]4CO)nc23)cc1 [Example 71],210 nM
2,CCCc1ccc(-c2c(C)nn3c(-c4ccc(F)cc4)cc(N4CCC[C@H]4CO)nc23)cc1 [Example 72],350 nM
3,CCCOc1ccc(-c2c(C)nn3c(-c4ccc(F)cc4)cc(N4CCC[C@H]4CO)nc23)cc1 [Example 74],160 nM
4,Cc1nn2c(-c3ccc(F)cc3)cc(N3CCC[C@H]3CO)nc2c1-c1ccc(F)cc1F [Example 77],350 nM
5,Cc1ccc(-c2c(C)nn3c(-c4ccc(F)cc4)cc(N4CCC[C@H]4CO)nc23)cc1F [Example 79],100 nM
6,CCOc1ccc(-c2c(C)nn3c(-c4ccc(F)cc4)cc(N4CCC[C@H]4CO)nc23)cc1F [Example 81],300 nM
7,Cc1nn2c(-c3ccc(F)cc3)cc(N3CCC[C@H]3CO)nc2c1-c1ccccc1 [Example 83],220 nM
8,Cc1nn2c(-c3ccc(F)cc3)cc(N3CCC[C@H]3CO)nc2c1-c1ccc(OC(F)(F)F)cc1 [Example 84],530 nM
9,Cc1nn2c(-c3ccc(F)cc3)cc(N3CCC[C@H]3CO)nc2c1-c1ccc(OC(C)C)cc1 [Example 85],470 nM
10,Cc1nn2c(-c3ccc(F)cc3)cc(N3CCC[C@H]3CO)nc2c1-c1ccccc1F [Example 87],430 nM
11,Cc1nn2c(-c3ccc(F)cc3)cc(N3CCC[C@H]3CO)nc2c1-c1ccc(Cl)c(Cl)c1 [Example 96],310 nM
12,CCCOc1ccc(-c2c(C)nn3c(-c4ccc(F)cc4)cc(N4CCC[C@H]4CO)nc23)cc1F [Example 100],310 nM
13,Cc1cc(-c2c(C)nn3c(-c4ccc(F)cc4)cc(N4CCC[C@H]4CO)nc23)ccc1F [Example 101],160 nM
14,Cc1nn2c(-c3ccc(F)cc3)cc(N3CCC[C@H]3CO)nc2c1-c1ccc(C#N)cc1 [Example 106],250 nM
15,"Cc1ccc(-c2c(C)nn3c(-c4cccc(F)c4)cc(N4CCC[C@H]4CO)nc23)cc1 [Example 110, (S)-(1-(3-(4-methylphenyl)-7-(3-fluorophenyl)-2-methylpyrazolo[1,5-a]pyrimidin-5-yl)pyrrolidin-2-yl)methanol]",80 nM
16,COc1ccc(-c2c(C)nn3c(-c4cccc(F)c4)cc(N4CCC[C@H]4CO)nc23)cc1 [Example 111],60 nM
17,CCOc1ccc(-c2c(C)nn3c(-c4cccc(F)c4)cc(N4CCC[C@H]4CO)nc23)cc1 [Example 112],130 nM
18,Cc1nn2c(-c3cccc(F)c3)cc(N3CCC[C@H]3CO)nc2c1-c1ccc2c(c1)OCO2 [Example 113],49 nM
19,Cc1nn2c(-c3cccc(F)c3)cc(N3CCC[C@H]3CO)nc2c1-c1ccc(C(F)F)cc1 [Example 114],77 nM
20,Cc1nn2c(-c3cccc(F)c3)cc(N3CCC[C@H]3CO)nc2c1-c1ccc(C(F)(F)F)cc1 [Example 115],140 nM
21,CCc1ccc(-c2c(C)nn3c(-c4cccc(F)c4)cc(N4CCC[C@H]4CO)nc23)cc1 [Example 116],160 nM

row,SMILES,IC50
1,C=Cc1ccc(-c2c(C)nn3c(-c4cccc(F)c4)cc(N4CCC[C@H]4CO)nc23)cc1 [Example 117],240 nM
2,CCCOc1ccc(-c2c(C)nn3c(-c4cccc(F)c4)cc(N4CCC[C@H]4CO)nc23)cc1 [Example 119],450 nM
3,Cc1ccc(-c2c(C)nn3c(-c4cccc(C(F)(F)F)c4)cc(N4CCC[C@H]4CO)nc23)cc1 [Example 122],45 nM
4,COc1ccc(-c2c(C)nn3c(-c4cccc(C(F)(F)F)c4)cc(N4CCC[C@H]4CO)nc23)cc1 [Example 123],76 nM
5,CCOc1ccc(-c2c(C)nn3c(-c4cccc(C(F)(F)F)c4)cc(N4CCC[C@H]4CO)nc23)cc1 [Example 124],70 nM
6,Cc1nn2c(-c3cccc(C(F)(F)F)c3)cc(N3CCC[C@H]3CO)nc2c1-c1ccc2c(c1)OCO2 [Example 125],90 nM
7,Cc1nn2c(-c3cccc(C(F)(F)F)c3)cc(N3CCC[C@H]3CO)nc2c1-c1ccc(C(F)F)cc1 [Example 126],69 nM
8,Cc1nn2c(-c3cccc(C(F)(F)F)c3)cc(N3CCC[C@H]3CO)nc2c1-c1ccc(C(F)(F)F)cc1 [Example 128],66 nM
9,CCc1ccc(-c2c(C)nn3c(-c4cccc(C(F)(F)F)c4)cc(N4CCC[C@H]4CO)nc23)cc1 [Example 129],73 nM
10,CCCOc1ccc(-c2c(C)nn3c(-c4cccc(C(F)(F)F)c4)cc(N4CCC[C@H]4CO)nc23)cc1 [Example 133],280 nM
11,Cc1nn2c(-c3cccc(C(F)(F)F)c3)cc(N3CCC[C@H]3CO)nc2c1-c1ccc(F)c(F)c1 [Example 134],190 nM
12,Cc1nn2c(-c3cccc(C(F)(F)F)c3)cc(N3CCC[C@H]3CO)nc2c1-c1ccc(F)cc1F [Example 135],120 nM
13,Cc1ccc(-c2c(C)nn3c(-c4cccc(C(F)(F)F)c4)cc(N4CCC[C@H]4CO)nc23)cc1F [Example 137],90 nM
14,COc1ccc(-c2c(C)nn3c(-c4cccc(C(F)(F)F)c4)cc(N4CCC[C@H]4CO)nc23)cc1F [Example 138],210 nM
15,Cc1nn2c(-c3cccc(C(F)(F)F)c3)cc(N3CCC[C@H]3CO)nc2c1-c1ccc(F)cc1 [Example 139],140 nM
16,Cc1ccc(-c2c(C)nn3c(-c4cccc(C)c4)cc(N4CCC[C@H]4CO)nc23)cc1 [Example 156],46 nM
17,"COc1ccc(-c2c(C)nn3c(-c4cccc(C)c4)cc(N4CCC[C@H]4CO)nc23)cc1 [Example 157, (S)-(1-(3-(4-methoxyphenyl)-7-(3-methylphenyl)-2-methylpyrazolo[1,5-a]pyrimidin-5-yl)pyrrolidin-2-yl)methanol]",210 nM
18,CCOc1ccc(-c2c(C)nn3c(-c4cccc(C)c4)cc(N4CCC[C@H]4CO)nc23)cc1 [Example 158],210 nM
19,Cc1cccc(-c2cc(N3CCC[C@H]3CO)nc3c(-c4ccc5c(c4)OCO5)c(C)nn23)c1 [Example 159],200 nM
20,Cc1cccc(-c2cc(N3CCC[C@H]3CO)nc3c(-c4ccc(C(F)F)cc4)c(C)nn23)c1 [Example 160],110 nM
